Inconclusive results and toxic doses are left out.
System: L1210 leukemia ip in BDF1 mice, survival T/C
Test: NCI In Vivo Anticancer Drug Screen. Data for tumor model L1210 Leukemia (intraperitoneal) in B6D2F1 (BDF1) mice
Details: endpoint: mean survival time, higher = longer survival
How it was run: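 In this screen, tumor-bearing mice given compound are compared to those given vehicle, and their survival values are reported as a treated-to-control quotient.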

[1] = dose: 50.0 mg/kg/injection, schedule: Q01DX009 (ip), vehicle: saline with Tween-80
[2] = dose: 100.0 mg/kg/injection, schedule: Q04DX002 (ip), vehicle: saline with Tween-80
[3] = dose: 200.0 mg/kg/injection, schedule: Q04DX002 (ip), vehicle: saline with Tween-80
[4] = dose: 100.0 mg/kg/injection, schedule: Q01DX009 (ip), vehicle: saline with Tween-80
[5] = dose: 100.0 mg/kg/injection, schedule: Q04DX003 (ip), vehicle: saline with Tween-80
[6] = dose: 200.0 mg/kg/injection, schedule: Q01DX009 (ip), vehicle: saline with Tween-80
[7] = dose: 200.0 mg/kg/injection, schedule: Q04DX003 (ip), vehicle: saline with Tween-80
[8] = dose: 400.0 mg/kg/injection, schedule: Q01DX009 (ip), vehicle: saline with Tween-80
[9] = dose: 400.0 mg/kg/injection, schedule: Q04DX003 (ip), vehicle: saline with Tween-80
[10] = dose: 100.0 mg/kg/injection, schedule: Q01DX009 (ip), vehicle: saline
[11] = dose: 100.0 mg/kg/injection, schedule: Q04DX003 (ip), vehicle: saline
[12] = dose: 200.0 mg/kg/injection, schedule: Q01DX009 (ip), vehicle: saline
[13] = dose: 200.0 mg/kg/injection, schedule: Q04DX003 (ip), vehicle: saline
[14] = dose: 50.0 mg/kg/injection, schedule: Q01DX009 (ip), vehicle: saline
[15] = dose: 100.0 mg/kg/injection, schedule: Q04DX003 (ip), vehicle: acetone
[16] = dose: 200.0 mg/kg/injection, schedule: Q04DX003 (ip), vehicle: acetone
[17] = dose: 400.0 mg/kg/injection, schedule: Q04DX003 (ip), vehicle: acetone

## O=C1OCCN1/N=C/c1ccc(Cl)cc1
dose: 25.0 mg/kg/injection, schedule: Q01DX009 (ip), vehicle: saline with Tween-80
  T/C: 102 % of control
dose: 37.5 mg/kg/injection, schedule: Q01DX009 (ip), vehicle: saline with Tween-80
  T/C: 98 % of control
[1]
  T/C: 102 % of control
dose: 75.0 mg/kg/injection, schedule: Q01DX009 (ip), vehicle: saline with Tween-80
  T/C: 93 % of control
[2]
  T/C: 96 % of control
[3]
  T/C: 107 % of control

## COc1cccc(/C=C/C(=O)c2ccc(Cl)cc2)c1OC
[4]
  T/C: 101 % of control
[5]
  T/C: 96 % of control
[6]
  T/C: 88 % of control
[7]
  T/C: 91 % of control
[8]
  T/C: 87 % of control
[9]
  T/C: 90 % of control

## Nc1ccc(OCC(=O)N2CCOCC2)c(Cl)c1
[10]
  T/C: 100 % of control
[11]
  T/C: 110 % of control
[12]
  T/C: 102 % of control
[13]
  T/C: 98 % of control
dose: 400.0 mg/kg/injection, schedule: Q01DX009 (ip), vehicle: saline
  T/C: 96 % of control
dose: 400.0 mg/kg/injection, schedule: Q04DX003 (ip), vehicle: saline
  T/C: 101 % of control

## Clc1ccccc1Nc1nnnc2ccccc12
[14]
  T/C: 91 % of control
[10]
  T/C: 95 % of control
[15]
  T/C: 96 % of control
[12]
  T/C: 90 % of control
[16]
  T/C: 100 % of control
[17]
  T/C: 98 % of control

## Cc1ccccc1N(C)C
dose: 50.0 mg/kg/injection, schedule: Q04DX002 (ip), vehicle: saline with Tween-80
  T/C: 106 % of control
[2]
  T/C: 98 % of control
[3]
  T/C: 92 % of control

## COC1OC(COC(=O)c2ccccc2)C(OC(=O)Nc2ccccc2)C1O (configuration not stated)
[4]
  T/C: 90 % of control
[5]
  T/C: 93 % of control
[6]
  T/C: 100 % of control
[7]
  T/C: 98 % of control
[8]
  T/C: 95 % of control
[9]
  T/C: 92 % of control

## CCCCCCCCCC(=O)N/N=C\c1cccc2ccccc12
dose: 25.0 mg/kg/injection, schedule: Q01DX009 (ip), vehicle: Klucel (hydroxypropylcellulose) (HPC)
  T/C: 90 % of control
dose: 50.0 mg/kg/injection, schedule: Q01DX009 (ip), vehicle: Klucel (hydroxypropylcellulose) (HPC)
  T/C: 103 % of control
dose: 100.0 mg/kg/injection, schedule: Q01DX009 (ip), vehicle: Klucel (hydroxypropylcellulose) (HPC)
  T/C: 87 % of control

## CSC(=S)NCC(=O)O
[1]
  T/C: 89 % of control
[4]
  T/C: 89 % of control
[6]
  T/C: 101 % of control

## O=C1c2cc([N+](=O)[O-])ccc2-c2cccc(F)c21
[15]
  T/C: 102 % of control
[16]
  T/C: 94 % of control
[17]
  T/C: 109 % of control

## Cc1ccc(C2=C(c3ccc(C)cc3)CS(=O)(=O)C2)cc1
dose: 100.0 mg/kg/injection, schedule: Q01DX001 (ip), vehicle: saline with Tween-80
  T/C: 95 % of control
dose: 200.0 mg/kg/injection, schedule: Q01DX001 (ip), vehicle: saline with Tween-80
  T/C: 168 % of control
dose: 400.0 mg/kg/injection, schedule: Q01DX001 (ip), vehicle: saline with Tween-80
  T/C: 244 % of control

## O=C1Oc2ccccc2C1=O
[14]
  T/C: 98 % of control
dose: 75.0 mg/kg/injection, schedule: Q01DX001 (ip), vehicle: other
  T/C: 101 % of control
[10]
  T/C: 102 % of control
[11]
  T/C: 109 % of control
dose: 150.0 mg/kg/injection, schedule: Q01DX001 (ip), vehicle: other
  T/C: 101 % of control
[12]
  T/C: 91 % of control
[13]
  T/C: 98 % of control
